Data on ten compounds can be found in patent US10494360B2, “Inhibitors of indoleamine 2,3-dioxygenase” (NETHERLANDS TRANSLATIONAL RESEARCH CENTER B.V., priority 2016, dated 2019).

The target of one assay is TDO (Homo sapiens, UniProt P48775). As to conditions: read-out: KM,Trp of TDO for L-tryptophan; cited from earlier work.
In assay [1] the target is T1, IDO1 (Homo sapiens, UniProt P14902). On the set-up: Recombinant full-length IDO1 (Seegers, N., et al.) and all other assay components were diluted in IDO1 reaction buffer; made in house. As to conditions: read-out: KM,Trp of IDO1 for L-tryptophan; cited from earlier work.
Another assay concerns melanoma. As to conditions: Yue et al. 2009; cited from earlier work.
Assay [2] has as its target tryptophan 2,3-dioxygenase (TDO) (Homo sapiens, UniProt P48775). As to conditions: Seegers et al. 2014; cited from earlier work.
For assay [3], the system named is IDO1 expressed in mouse tumor cells. The note with it: pre-immunized mice; Uyttenhove et al.; cited from earlier work.
The test system of the next assay is lung carcinoma. As to conditions: syngeneic mouse lung carcinoma model and transgenic mouse model; cited from earlier work.
Assay [4] concerns melanoma and glioblastoma. As to conditions: mouse tumor models for melanoma and glioblastoma; cited from earlier work.
The test system of another assay is influenza virus. The note with it: influenza virus-infected mice; cited from earlier work.
The test system of another assay is Leishmania major. The note with it: Leishmania major infection; cited from earlier work.
For assay [5], the target named is T1, IDO1. As to the kind of experiment: Cell-based assay for IDO1 in interferon-γ stimulated A-375 melanoma cells. The note with it: interferon-γ stimulation, 48 hours, read-out: IC50, cell-based IDO1 (NFK levels). How it is done: The biological activity of IDO1 inhibitors can be measured by applying above detection methods to cells that are treated with test compound. The expression of IDO1 can be induced in many different cell lines by stimulation with IFNγ (Takikawa, O., et al., J. Biol. Chem. 263: 2041; 1988; Seegers, et al.), or IDO1 can be expressed in cells that lack endogenous IDO1 by transfection of an expression vector containing IDO1 cDNA.
A-375 melanoma cells were purchased from LGC Standards GmbH (Wesel, Germany) and cultured in DMEM tissue culture medium (Life Technologies, Bleiswijk, The Netherlands), supplemented with 10% (v/v) bovine calf serum. Compounds were dissolved in DMSO and diluted in DMEM. Final DMSO concentration in the assay was 0.4% (v/v). Eight thousand cells per well in 35 μl were seeded in a black 384-well tissue plate (cat. No. 781086; Greiner Bio-One GmbH, Frickenhausen, Germany) and allowed to adhere by incubation at 37° C., 95% humidity, and 5% CO2 overnight. Then, 5 μl of compound solution was added to the cells 1 hour prior to stimulation with 5 μl of 500 ng/ml interferon-γ (R&D Systems, Minneapolis, Minn., USA) diluted in DMEM medium. At the same time, 5 μl of L-tryptophan in 20 mM Hepes buffer pH 7.4 was added. Incubation was continued for 48 hours. To determine NFK levels, 12 μl NFK Green™ (NTRC, Oss, The Netherlands) was added to each well, and the plate was sealed and incubated for 4 hours at 37° C. Fluorescence was measured on an EnVision multimode reader (Perkin Elmer, Waltham, Mass., USA). IC50 were calculated using XLfit™ software (ID Business Solutions, Ltd., Surrey, U.K.).

Assay [6] concerns the target T1, IDO1. Briefly: Biochemical IDO1 assay (NFK GreenScreen). Set-up: Recombinant full-length IDO1 (Seegers, N., et al.) and all other assay components were diluted in IDO1 reaction buffer; made in house. As to conditions: for IC50: recombinant full-length IDO1 25 nM, L-tryptophan 100 μM, NFK Green detection, read-out: IC50, inhibitory potency on IDO1. In a few lines:
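Recombinant full-length IDO1 in 50 mM NaH2PO4 pH 7.0 with 0.05% Tween-20 and 1% glycerol converted 100 μM L-tryptophan (final) over 60 min at room temperature with compound, 0.3% DMSO.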

Values joined by “and” are separate entries in the source; they are usually repeats but may differ in a detail not shown here. Identical values can stand only once. Bounds are passed on as bounds.

T1 sequence (P14902 whole entry, species assumed): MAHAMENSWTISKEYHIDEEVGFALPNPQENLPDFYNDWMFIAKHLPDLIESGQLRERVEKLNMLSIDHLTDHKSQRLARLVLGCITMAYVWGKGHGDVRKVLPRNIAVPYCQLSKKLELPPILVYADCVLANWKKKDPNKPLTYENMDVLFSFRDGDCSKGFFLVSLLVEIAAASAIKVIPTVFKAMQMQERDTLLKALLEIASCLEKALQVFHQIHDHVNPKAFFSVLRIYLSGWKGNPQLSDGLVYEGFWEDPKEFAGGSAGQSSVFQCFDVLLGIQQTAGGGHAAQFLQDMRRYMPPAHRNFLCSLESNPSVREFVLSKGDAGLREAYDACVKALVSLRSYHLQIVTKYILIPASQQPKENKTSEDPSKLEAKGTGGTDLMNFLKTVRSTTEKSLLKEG
Sequence of tryptophan 2,3-dioxygenase (TDO) (P48775 whole entry, species assumed): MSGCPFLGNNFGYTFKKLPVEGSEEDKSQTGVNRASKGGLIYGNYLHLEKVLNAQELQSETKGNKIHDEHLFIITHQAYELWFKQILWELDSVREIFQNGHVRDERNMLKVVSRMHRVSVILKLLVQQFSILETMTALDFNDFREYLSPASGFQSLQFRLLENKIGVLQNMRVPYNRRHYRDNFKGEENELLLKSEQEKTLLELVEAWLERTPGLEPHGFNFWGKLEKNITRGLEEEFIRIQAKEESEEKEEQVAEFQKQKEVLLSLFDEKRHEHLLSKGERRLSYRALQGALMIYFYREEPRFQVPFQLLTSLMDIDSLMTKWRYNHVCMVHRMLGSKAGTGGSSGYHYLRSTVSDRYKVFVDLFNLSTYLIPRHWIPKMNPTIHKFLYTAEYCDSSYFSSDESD
Sequence of TDO (P48775 whole entry, species assumed): as above

`N[C@@H](Cc1c[nH]c2ccccc12)C(=O)O` [L-tryptophan]: the Km is 190 µM at TDO and 6 µM at IDO1 [1].
As to `Nc1nonc1C(=NO)Nc1ccc(F)c(Cl)c1` [compound 51, 4-amino-N-(3-chloro-4-fluorophenyl)-N′-hydroxy-1,2,5-oxadiazole-3-carboximidamide], the “tumor growth in mouse model for melanoma” value with melanoma was “reduction of tumor growth”. Moreover, the “inhibition of TDO activity in biochemical assays” value in assay [2] was “inhibit the activity of tryptophan 2,3-dioxygenase (TDO)”.
With `Cn1cc(C[C@H](N)C(=O)O)c2ccccc21` [Example 1-MT, 1-methyl-L-tryptophan], in assay [3], the “reversal of IDO1-mediated prevention of tumor cell rejection” value was “this effect could be reverted”. For the same compound, the “efficacy of a cancer vaccine in combination” value in the assay on lung carcinoma is recorded as “increased the efficacy of a cancer vaccine”. Also, the “efficacy of PD-1 and CTLA4 antibodies in combination” value in assay [4] is “increased the efficacy of antibodies targeting the immune checkpoints PD-1 and CTLA4”. Also, in the assay on influenza virus, the “T cell response against influenza virus” value is recorded as “enhanced T cell response against the virus”. In the assay on Leishmania major, the parasite burden result is “reduced the parasite burden”.
As to `C[C@@H](c1ccccc1)N1CC(=O)N(O)C1c1cccc(I)c1` (single isomer, unassigned) [Example 140a], the IC50 was < 5 µM at IDO1 [5]; ≤ 5 µM and 1 to 5 µM at IDO1 [6]. For the same compound, the “relative activity of separated isomers” value on IDO1 [6] (less active / most active isomer of the pair, assay not given) is “less active isomer”.
On to `O=C1CN(C(=O)c2ccccc2F)C(c2cccc(C(F)(F)F)c2)N1O` (stereo not drawn) [Example 10, 1-(2-Fluorobenzoyl)-3-hydroxy-2-[3-(trifluoromethyl)phenyl]imidazolidin-4-one], for which the IC50 at IDO1 [5] is < 5 µM; at IDO1 [6], ≤ 5 µM and 1 to 5 µM.
`C=Cc1cccc(C2N(O)C(=O)CN2C(=O)c2c(F)cccc2F)c1` (stereo not drawn) [Example 129, 1-(2,6-Difluorobenzoyl)-3-hydroxy-2-(3-vinylphenyl)imidazolidin-4-one]: the results for the IC50 at IDO1 [5] and at IDO1 [6] were < 5 µM and ≤ 1 µM, respectively.
The matching figures for `O=C1CN(C(=O)c2ccncc2F)C(c2cccc(Br)c2)N1O` (stereo not drawn) [Example 86, 2-(3-Bromophenyl)-1-(3-fluoropyridine-4-carbonyl)-3-hydroxy-imidazolidin-4-one]: < 5 µM and ≤ 1 µM.
In the same order, the values of `O=C1CN(C(=O)c2ccccc2F)C(c2ccc(F)c(Br)c2)N1O` (stereo not drawn) [Example 46, 2-(3-Bromo-4-fluoro-phenyl)-1-(2-fluoro-benzoyl)-3-hydroxy-imidazolidin-4-one] are < 5 µM and ≤ 1 µM.
The matching figures for `C=Cc1cc(F)c(C(=O)N2CC(=O)N(O)C2c2cccc(Br)c2)c(F)c1` (stereo not drawn) [Example 115, 2-(3-Bromophenyl)-1-(2,6-difluoro-4-vinyl-benzoyl)-3-hydroxy-imidazolidin-4-one]: < 5 µM and ≤ 1 µM.
As to `O=C1CN(C(=O)c2ccccc2)C(c2ccc(F)c(Br)c2)N1O` (stereo not drawn) [Example 39, 1-Benzoyl-2-(3-bromo-4-fluoro-phenyl)-3-hydroxy-imidazolidin-4-one], the IC50 at IDO1 [5] was < 5 µM; at IDO1 [6], ≤ 5 µM and 1 to 5 µM.

As usually defined, the Km is the concentration of substrate that gives half-maximal velocity. As usually defined, the IC50 is the concentration needed to halve the response being measured.
